14 molecules from patent publication US20230303547A1, “N-CYANOPYRROLIDINES WITH ACTIVITY AS USP30 INHIBITORS” (MISSION THERAPEUTICS LIMITED, priority 2020, published 2023) can be followed below.

Structures are written as SMILES. Read-outs that look alike come from different tables or passages of the source.

The target in one experiment is UCHL1 (Homo sapiens (Human), UniProt P09936). Nature of the experiment: UCHL1 DUB IC50. It is filed as biochemical. The following applies: for DUB selectivity preference for USP30 v UCHL1: fold.
A further experiment deals with USP30 (Homo sapiens (Human), UniProt Q70CQ3). Nature of the experiment: USP30 biochemical IC50 assay (fluorescence polarisation). The method, then:
It is generally desirable to maximise the potency of a drug molecule against the target enzyme in relevant assays in order to lower the effective/efficacious dosage that is to be administered to patients. Compounds of the invention may be tested for USP30 affinity using the in vitro biochemical fluorescence polarization (FP) assay described herein.
Dilution plates were prepared at 21 times the final concentration (2100 µM for a final concentration of 100 µM) in 50% DMSO in a 96-well polypropylene V-bottom plate (Greiner #651201). A typical 8-point dilution series would be 100, 30, 10, 3, 1, 0.3, 0.1, 0.03 µM final. Reactions were performed in duplicate in black 384 well plates (small volume, Greiner 784076) in a final reaction volume of 21 µl. Either 1 µl of 50% DMSO or diluted compound was added to the plate. USP30 (Boston Biochem #E582) was diluted in reaction buffer (40 mM Tris, pH 7.5, 0.005% Tween 20, 0.5 mg/ml BSA, 5 mM beta-mercaptoethanol) to achieve a final assay concentration of 4 nM, and 10 µl of diluted USP30 was added to the compound. Enzyme and compound were incubated for 30 min at room temp. Reactions were initiated by the addition of 50 nM of TAMRA labelled peptide linked to ubiquitin via an iso-peptide bond as fluorescence polarisation substrate. Reactions were read immediately after addition of substrate and following a 2-hour incubation at room temperature. Readings were performed on a Pherastar Plus (BMG Labtech). λ Excitation 540 nm; λ Emission 590 nm.
In general terms: In fluorescence polarisation assays a small probe gives low polarisation when free and higher when bound to something large.

The next experiment has as its target Cathepsin B (Homo sapiens (Human), UniProt P07858). The experiment in a line: Cathepsin B IC50. It is filed as biochemical.
For another experiment, the target named is Cathepsin V (Homo sapiens (Human), UniProt O60911). Nature of the experiment: Cathepsin V IC50. It is filed as biochemical.
The next experiment addresses Cathepsin L (Homo sapiens (Human), UniProt P07711). The experiment in a line: Cathepsin L IC50. The experiment is classed as biochemical.
The next experiment addresses Cathepsin S (Homo sapiens (Human), UniProt P25774). The experiment in a line: Cathepsin S IC50. It is filed as biochemical.
For another experiment, the target named is Cathepsin K (Homo sapiens (Human), UniProt P43235). Nature of the experiment: Cathepsin K IC50. The experiment is classed as biochemical.
In experiment [1] the test system is USP2, USP6, USP10, USP15, USP16, USP21, USP25, USP28, USP46/UAF1. Nature of the experiment: DUB selectivity panel IC50. It is filed as biochemical. The following applies: for DUB selectivity preference for USP30 v 9 DUBs: fold, minimum over nine DUBs; for IC50: range over the nine DUBs.
Experiment [2] has as its system cathepsins (B, K, L, S and V). The experiment in a line: Cathepsin panel summary. The experiment is classed as biochemical. The conditions noted are these: for Selectivity preference for USP30 v cathepsins: fold; for IC50: summary over the five cathepsins.
Where [3] appears, read: reference examples, USP30 biochemical IC50 assay, read-out: USP30 IC50.
Where [4] appears, read: USP30 biochemical IC50 assay, read-out: IC50.

Sequence of USP30 (Q70CQ3 57-517): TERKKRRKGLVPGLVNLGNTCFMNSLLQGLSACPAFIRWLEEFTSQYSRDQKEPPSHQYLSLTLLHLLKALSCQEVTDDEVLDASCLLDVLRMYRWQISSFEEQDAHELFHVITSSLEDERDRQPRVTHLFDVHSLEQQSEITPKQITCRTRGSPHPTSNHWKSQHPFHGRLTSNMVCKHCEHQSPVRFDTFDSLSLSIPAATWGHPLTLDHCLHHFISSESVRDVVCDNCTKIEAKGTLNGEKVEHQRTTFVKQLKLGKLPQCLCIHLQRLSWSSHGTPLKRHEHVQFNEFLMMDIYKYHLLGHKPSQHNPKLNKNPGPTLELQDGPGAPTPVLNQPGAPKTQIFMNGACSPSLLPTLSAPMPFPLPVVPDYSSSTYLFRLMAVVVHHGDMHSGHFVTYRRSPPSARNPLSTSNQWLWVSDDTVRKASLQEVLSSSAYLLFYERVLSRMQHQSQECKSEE
Sequence of Cathepsin L (P07711 114-333, species assumed): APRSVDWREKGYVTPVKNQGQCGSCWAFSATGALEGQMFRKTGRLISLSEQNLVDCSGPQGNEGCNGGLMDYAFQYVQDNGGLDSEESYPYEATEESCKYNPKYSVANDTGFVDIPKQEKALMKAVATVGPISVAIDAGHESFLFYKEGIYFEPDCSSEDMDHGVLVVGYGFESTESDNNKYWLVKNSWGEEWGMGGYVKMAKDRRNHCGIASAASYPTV
Sequence of Cathepsin S (P25774 115-331, species assumed): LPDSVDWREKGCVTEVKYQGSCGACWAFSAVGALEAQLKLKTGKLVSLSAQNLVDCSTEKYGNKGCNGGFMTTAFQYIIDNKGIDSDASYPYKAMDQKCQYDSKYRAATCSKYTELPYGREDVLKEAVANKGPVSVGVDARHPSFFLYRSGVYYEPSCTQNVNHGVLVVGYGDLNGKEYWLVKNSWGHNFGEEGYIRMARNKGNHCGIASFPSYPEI
Sequence of Cathepsin V (O60911 114-334, species assumed): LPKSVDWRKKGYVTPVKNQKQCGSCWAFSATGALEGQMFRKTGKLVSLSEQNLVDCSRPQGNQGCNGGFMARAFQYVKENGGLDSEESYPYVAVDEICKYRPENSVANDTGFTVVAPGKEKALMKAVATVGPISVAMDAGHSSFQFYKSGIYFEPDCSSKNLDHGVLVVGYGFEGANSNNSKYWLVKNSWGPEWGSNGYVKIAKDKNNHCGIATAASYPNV
Sequence of UCHL1 (P09936 whole entry, species assumed): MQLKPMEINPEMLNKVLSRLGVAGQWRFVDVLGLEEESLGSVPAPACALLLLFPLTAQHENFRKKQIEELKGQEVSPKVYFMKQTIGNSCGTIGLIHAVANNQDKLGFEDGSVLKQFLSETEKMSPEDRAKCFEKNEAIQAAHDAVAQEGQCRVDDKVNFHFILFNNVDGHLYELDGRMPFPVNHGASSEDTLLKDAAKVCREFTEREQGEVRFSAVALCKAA
Sequence of Cathepsin K (P43235 115-329, species assumed): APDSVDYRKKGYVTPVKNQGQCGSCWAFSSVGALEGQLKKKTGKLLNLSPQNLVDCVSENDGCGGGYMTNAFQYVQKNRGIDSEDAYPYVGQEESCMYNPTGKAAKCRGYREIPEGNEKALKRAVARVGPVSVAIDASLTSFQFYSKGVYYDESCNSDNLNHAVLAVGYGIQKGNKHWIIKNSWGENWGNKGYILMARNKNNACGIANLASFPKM

Consider `N#Cc1ccc(-c2cnc(NC(=O)[C@H]3CCN(C#N)C3)s2)cc1OC(F)(F)F` [B, reference compound], for which, on UCHL1, the IC50 is 0.52 µM and the “DUB selectivity preference for USP30 v UCHL1” value amounted to 3.0.
For `COc1cc(-c2cnc(NC(=O)[C@H]3CCN(C#N)C3)s2)ccc1C#N` [C, reference compound], the IC50 against UCHL1 stood at 0.21 µM; at USP30 (read-out: DUB IC50 USP30) it was 0.16 µM; at USP30 (setting [3]), 0.16 µM. Also, at UCHL1, the “DUB selectivity preference for USP30 v UCHL1” value worked out at 1.3.
For the molecule `N#CN1CC[C@H](C(=O)Nc2ncc(-c3ccccc3)s2)C1` [D, reference compound], at UCHL1, the “DUB selectivity preference for USP30 v UCHL1” value is recorded as 0.8.
For the molecule `COc1ccc(C#N)cc1-c1cnc(C(=O)N[C@@H]2C[C@@H](C)N(C#N)C2)o1` [Example 4, 5-(5-cyano-2-methoxyphenyl)-N-((3R,5R)-1-cyano-5-methylpyrrolidin-3-yl)oxazole-2-carboxamide], the IC50 against Cathepsin B is > 300 µM; against Cathepsin V, > 300 µM; on Cathepsin L, 294 µM; on UCHL1, > 300 µM; at Cathepsin S, > 300 µM; at Cathepsin K, 165 µM.
Regarding `COC[C@@H]1C[C@@H](NC(=O)c2ncc(-c3cc(C#N)ccc3OC)o2)CN1C#N` [Example 5, 5-(5-cyano-2-methoxyphenyl)-N-((3R,5S)-1-cyano-5-(methoxymethyl)pyrrolidin-3-yl)oxazole-2-carboxamide], the IC50 at USP30 (setting [4]) was 0.003 µM.
On to `COC[C@@H]1C[C@@H](NC(=O)c2nc(-c3cc(C#N)ccc3OC)co2)CN1C#N` [Example 6, 4-(5-cyano-2-methoxyphenyl)-N-((3R,5S)-1-cyano-5-(methoxymethyl)pyrrolidin-3-yl)oxazole-2-carboxamide], for which the 50% inhibitory concentration (IC50) against Cathepsin B was 52.1 µM; in experiment [1] it was 1.4 to 258 µM; against Cathepsin V it was 91.6 µM; on Cathepsin L it was 39.8 µM; at UCHL1, > 300 µM; at Cathepsin S it was 64.8 µM. Also, the IC50 against Cathepsin K is 40.4 µM; on USP30 (setting [4]), 0.002 µM; at USP30 (read-out: DUB IC50 USP30), 0.002 µM; in [2] it was ≥ 39.8 µM. For the same molecule, the “DUB selectivity preference for USP30 v 9 DUBs” value in experiment [1] is ≥ 700. For the same molecule, the “Selectivity preference for USP30 v cathepsins” value in experiment [2] is ≥ 19900.
On to `COC[C@@H]1C[C@@H](NC(=O)c2ncc(-c3cc(C#N)ccc3OC(F)(F)F)o2)CN1C#N` [Example 7, 5-(5-cyano-2-(trifluoromethoxy)phenyl)-N-((3R,5S)-1-cyano-5-(methoxymethyl)pyrrolidin-3-yl)oxazole-2-carboxamide], for which the IC50 against Cathepsin B is 60.9 µM; on Cathepsin V, 12.1 µM; against Cathepsin L, 13.8 µM; against UCHL1, > 300 µM; against Cathepsin S, > 30 µM; against Cathepsin K, 14.9 µM. For the same molecule, the IC50 on USP30 (setting [4]) is 0.003 µM; at USP30 (read-out: DUB IC50 USP30), 0.003 µM; in experiment [2] it was ≥ 12.1 µM. The “DUB selectivity preference for USP30 v 9 DUBs” value in experiment [1] is reported as ≥ 1333. Besides, the “Selectivity preference for USP30 v cathepsins” value in experiment [2] was ≥ 4033.
Regarding `C[C@@H]1C[C@@H](NC(=O)c2ncc(-c3cc(C#N)ccc3OC(F)(F)F)o2)CN1C#N` [Example 8, 5-(5-cyano-2-(trifluoromethoxy)phenyl)-N-((3R,5R)-1-cyano-5-methylpyrrolidin-3-yl)oxazole-2-carboxamide], the IC50 on USP30 (setting [4]) was 0.004 µM.
With `COc1cc(F)c(C#N)cc1-c1cnc(C(=O)N[C@@H]2C[C@@H](C)N(C#N)C2)o1` [Example 9, 5-(5-cyano-4-fluoro-2-methoxyphenyl)-N-((3R,5R)-1-cyano-5-methylpyrrolidin-3-yl)oxazole-2-carboxamide], at USP30 (setting [4]), the IC50 came out at 0.002 µM.
On to `COC[C@@H]1C[C@@H](NC(=O)c2nc(-c3cc(C#N)ccc3OC3CC3)co2)CN1C#N` [Example 10, 4-(5-cyano-2-cyclopropoxyphenyl)-N-((3R,5S)-1-cyano-5-(methoxymethyl)pyrrolidin-3-yl)oxazole-2-carboxamide], for which, at USP30 (setting [4]), the IC50 stood at 0.004 µM.
Take `COC[C@H]1C[C@@H](NC(=O)c2ncc(-c3cc(C#N)ccc3OC3CC3)o2)CN1C#N` [Example 11, 5-(5-cyano-2-cyclopropoxyphenyl)-N-((3R,5R)-1-cyano-5-(methoxymethyl)pyrrolidin-3-yl)oxazole-2-carboxamide]: the IC50 was 83 µM against Cathepsin B; > 100 µM against Cathepsin V; 15.4 µM on Cathepsin L; > 300 µM against UCHL1; 130 µM on Cathepsin S; 100 µM against Cathepsin K. The values for the IC50 (at USP30 (setting [4]); in experiment [2]) were 0.01 µM and ≥ 15.4 µM, respectively. Besides, the “DUB selectivity preference for USP30 v 9 DUBs” value in [1] was ≥ 7820. Moreover, in experiment [2], the “Selectivity preference for USP30 v cathepsins” value is listed as ≥ 1540.
Regarding `COC[C@H]1C[C@@H](NC(=O)c2nc(-c3cc(C#N)ccc3OC3CC3)co2)CN1C#N` [Example 12, 4-(5-cyano-2-cyclopropoxyphenyl)-N-((3R,5R)-1-cyano-5-(methoxymethyl)pyrrolidin-3-yl)oxazole-2-carboxamide], the IC50 was > 300 µM against Cathepsin B; 190 µM against Cathepsin V; > 300 µM against Cathepsin L; > 300 µM at UCHL1; > 300 µM against Cathepsin S; > 300 µM at Cathepsin K. Moreover, the IC50 at USP30 (setting [4]) was 0.068 µM; in [2] it was ≥ 189 µM. The “DUB selectivity preference for USP30 v 9 DUBs” value in experiment [1] is ≥ 110. Also, the “DUB selectivity preference for USP30 v UCHL1” value on UCHL1 is “greater than 4412”; on UCHL1 (listed as Ex. 12), > 4412. Besides, the “Selectivity preference for USP30 v cathepsins” value in experiment [2] is on record as ≥ 2788.
Consider `COc1cccc(-c2cc(C(=O)N[C@@H]3CCN(C#N)C3)on2)c1` [Reference Example A, reference compound], for which the “DUB selectivity preference for USP30 v 9 DUBs” value in [1] is reported as ≥ 2.2. Also, the IC50 in [1] is 0.15 to 22.4 µM; against Cathepsin L it was 2.9 µM; at USP30 (read-out: DUB IC50 USP30) it was 0.068 µM; on USP30 (setting [3]) it was 0.068 µM; in experiment [2] it was 0.79 to 8.8 µM. The “fold more potent against USP30 than against cathepsin K” value on Cathepsin K amounted to 11.6 fold. The “Selectivity preference for USP30 v cathepsins” value in experiment [2] is reported as 11.6 - 129.
As for `CC1CC(C(=O)Nc2ncc(-c3ccccc3)s2)CN1C#N` (centres unmarked) [Reference Example E, reference compound], the “DUB selectivity preference for USP30 v UCHL1” value on UCHL1 is recorded as 1.5.

As usually defined, the IC50 is the concentration that gives 50% inhibition.
